Reference: article PMC10528299, “Targeting FAK/PYK2 with SJP1602 for Anti-Tumor Activity in Triple-Negative Breast Cancer” (Current Issues in Molecular Biology, 2023)

Legend:
Assay in all cases: Eurofins kinase profiling
Assay type in all cases: biochemical
PKCι(h) = biological target: T1, PKCι(h) (Homo sapiens, UniProt P41743); conditions: read-out: residual kinase activity PKCι(h)
T1 construct: purchased Eurofins KinaseProfiler
T1 sequence (P41743 1-596): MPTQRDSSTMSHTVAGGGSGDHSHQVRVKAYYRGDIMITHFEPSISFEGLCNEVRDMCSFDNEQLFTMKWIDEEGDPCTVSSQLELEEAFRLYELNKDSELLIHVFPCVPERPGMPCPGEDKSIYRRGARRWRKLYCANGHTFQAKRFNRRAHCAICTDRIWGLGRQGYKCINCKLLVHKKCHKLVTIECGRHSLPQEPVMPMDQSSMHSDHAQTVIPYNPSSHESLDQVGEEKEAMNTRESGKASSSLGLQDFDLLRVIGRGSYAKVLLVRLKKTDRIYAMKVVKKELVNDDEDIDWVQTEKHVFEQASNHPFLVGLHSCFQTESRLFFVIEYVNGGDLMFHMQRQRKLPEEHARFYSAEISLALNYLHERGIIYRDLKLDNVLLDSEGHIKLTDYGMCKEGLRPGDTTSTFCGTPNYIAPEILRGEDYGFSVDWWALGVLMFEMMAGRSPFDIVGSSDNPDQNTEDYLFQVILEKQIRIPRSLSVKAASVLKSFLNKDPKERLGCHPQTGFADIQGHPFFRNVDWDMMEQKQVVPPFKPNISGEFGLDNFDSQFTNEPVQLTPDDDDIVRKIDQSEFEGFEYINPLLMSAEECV
Experimental: (§1) The kinase profiling analysis was performed at Eurofins (Poitiers, France). A total of 110 kinase assays were carried out according to Eurofins’ standard protocols. For protein kinase assays, the kinase activity was measured using Eurofins’ KinaseProfiler radiometric assay. In this assay, a panel of kinases was incubated with the test compound SJP1602 at a concentration of 1 µM, and the kinase activity was determined using radiolabeled phosphate as a substrate. Lipid and atypical kinase assays were conducted using Eurofins’ homogeneous time-resolved fluorescence assay. The same panel of kinases was incubated with SJP1602 at a concentration of 1 µM, and the activity of lipid and atypical kinases was measured using this assay.

Flt1(h) = biological target: T2, Flt1(h) (Homo sapiens, UniProt P17948); conditions: read-out: residual kinase activity Flt1(h)
T2 construct: purchased Eurofins KinaseProfiler
Experimental: as §1

CK1γ2(h) = biological target: T3, CK1γ2(h) (Homo sapiens, UniProt P78368); conditions: read-out: residual kinase activity CK1γ2(h)
T3 construct: purchased Eurofins KinaseProfiler
Experimental: as §1

cSRC(h) = biological target: T4, cSRC(h) (Homo sapiens, UniProt P12931); conditions: read-out: residual kinase activity cSRC(h)
T4 construct: purchased Eurofins KinaseProfiler
Experimental: as §1

HIPK3(h) = biological target: T5, HIPK3(h) (Homo sapiens, UniProt Q9H422); conditions: read-out: residual kinase activity HIPK3(h)
T5 construct: purchased Eurofins KinaseProfiler
Experimental: as §1

Flt4(h) = biological target: T6, Flt4(h) (Homo sapiens, UniProt P35916); conditions: read-out: residual kinase activity Flt4(h)
T6 construct: purchased Eurofins KinaseProfiler
Experimental: as §1

Fes(h) = biological target: T7, Fes(h) (Homo sapiens, UniProt P07332); conditions: read-out: residual kinase activity Fes(h)
T7 construct: purchased Eurofins KinaseProfiler
Experimental: as §1

Abl(T315I)(h) = biological target: T8, Abl(T315I)(h) (Homo sapiens, UniProt P00519, T315I); conditions: read-out: residual kinase activity Abl(T315I)(h)
T8 construct: purchased Eurofins KinaseProfiler
Experimental: as §1

KDR(h) = biological target: T9, KDR(h) (Homo sapiens, UniProt P35968); conditions: read-out: residual kinase activity KDR(h)
T9 construct: purchased Eurofins KinaseProfiler
Experimental: as §1

cKit(D816H)(h) = biological target: T10, cKit(D816H)(h) (Homo sapiens, UniProt P10721, D816H); conditions: read-out: residual kinase activity cKit(D816H)(h)
T10 construct: purchased Eurofins KinaseProfiler
Experimental: as §1

IKKα(h) = biological target: T11, IKKα(h) (Homo sapiens, UniProt O15111); conditions: read-out: residual kinase activity IKKα(h)
T11 construct: purchased Eurofins KinaseProfiler
T11 sequence (O15111 1-745): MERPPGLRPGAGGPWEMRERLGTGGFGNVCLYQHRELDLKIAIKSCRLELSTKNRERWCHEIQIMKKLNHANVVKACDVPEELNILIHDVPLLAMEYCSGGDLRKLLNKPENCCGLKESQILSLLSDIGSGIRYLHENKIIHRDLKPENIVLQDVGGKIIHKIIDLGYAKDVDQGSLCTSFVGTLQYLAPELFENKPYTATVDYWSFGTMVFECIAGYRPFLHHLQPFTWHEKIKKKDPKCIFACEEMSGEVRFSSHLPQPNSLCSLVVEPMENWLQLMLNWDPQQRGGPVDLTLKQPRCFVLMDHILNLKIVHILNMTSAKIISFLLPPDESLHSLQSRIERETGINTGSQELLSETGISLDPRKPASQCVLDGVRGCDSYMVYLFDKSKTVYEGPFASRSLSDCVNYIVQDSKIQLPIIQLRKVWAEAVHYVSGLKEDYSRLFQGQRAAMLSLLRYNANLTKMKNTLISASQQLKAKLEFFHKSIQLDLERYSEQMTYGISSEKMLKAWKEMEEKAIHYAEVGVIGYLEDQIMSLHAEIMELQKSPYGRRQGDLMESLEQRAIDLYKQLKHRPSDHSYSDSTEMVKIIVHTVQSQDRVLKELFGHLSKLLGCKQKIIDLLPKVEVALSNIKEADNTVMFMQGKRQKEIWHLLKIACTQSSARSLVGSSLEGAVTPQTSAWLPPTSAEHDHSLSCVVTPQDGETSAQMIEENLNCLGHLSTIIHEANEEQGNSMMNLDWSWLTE
Experimental: as §1

T4 sequence (P12931 whole entry): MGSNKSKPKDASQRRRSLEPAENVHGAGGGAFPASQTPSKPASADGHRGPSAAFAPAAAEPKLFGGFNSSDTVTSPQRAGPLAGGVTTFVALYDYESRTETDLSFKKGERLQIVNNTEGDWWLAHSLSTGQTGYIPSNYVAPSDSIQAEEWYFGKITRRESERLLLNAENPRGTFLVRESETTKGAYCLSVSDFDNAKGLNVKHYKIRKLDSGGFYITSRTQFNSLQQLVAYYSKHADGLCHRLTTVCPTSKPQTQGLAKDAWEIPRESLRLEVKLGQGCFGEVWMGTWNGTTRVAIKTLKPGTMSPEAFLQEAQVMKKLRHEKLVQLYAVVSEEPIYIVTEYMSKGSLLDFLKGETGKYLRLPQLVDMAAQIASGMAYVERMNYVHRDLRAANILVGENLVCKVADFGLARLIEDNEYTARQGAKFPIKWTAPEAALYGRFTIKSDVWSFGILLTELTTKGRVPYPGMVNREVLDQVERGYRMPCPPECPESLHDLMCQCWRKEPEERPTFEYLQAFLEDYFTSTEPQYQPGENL
T3 sequence (P78368 whole entry): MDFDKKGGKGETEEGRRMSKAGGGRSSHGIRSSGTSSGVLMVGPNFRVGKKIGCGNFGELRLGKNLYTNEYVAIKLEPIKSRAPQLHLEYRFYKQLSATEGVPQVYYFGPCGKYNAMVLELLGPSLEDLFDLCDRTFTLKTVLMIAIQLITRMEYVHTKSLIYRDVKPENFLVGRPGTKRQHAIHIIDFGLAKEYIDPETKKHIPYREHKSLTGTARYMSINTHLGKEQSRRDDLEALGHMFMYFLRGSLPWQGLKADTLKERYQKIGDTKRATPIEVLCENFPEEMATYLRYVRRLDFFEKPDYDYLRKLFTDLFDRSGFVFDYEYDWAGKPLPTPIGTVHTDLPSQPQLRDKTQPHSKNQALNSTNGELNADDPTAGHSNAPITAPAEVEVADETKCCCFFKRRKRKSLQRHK
T9 sequence (P35968 20-1356): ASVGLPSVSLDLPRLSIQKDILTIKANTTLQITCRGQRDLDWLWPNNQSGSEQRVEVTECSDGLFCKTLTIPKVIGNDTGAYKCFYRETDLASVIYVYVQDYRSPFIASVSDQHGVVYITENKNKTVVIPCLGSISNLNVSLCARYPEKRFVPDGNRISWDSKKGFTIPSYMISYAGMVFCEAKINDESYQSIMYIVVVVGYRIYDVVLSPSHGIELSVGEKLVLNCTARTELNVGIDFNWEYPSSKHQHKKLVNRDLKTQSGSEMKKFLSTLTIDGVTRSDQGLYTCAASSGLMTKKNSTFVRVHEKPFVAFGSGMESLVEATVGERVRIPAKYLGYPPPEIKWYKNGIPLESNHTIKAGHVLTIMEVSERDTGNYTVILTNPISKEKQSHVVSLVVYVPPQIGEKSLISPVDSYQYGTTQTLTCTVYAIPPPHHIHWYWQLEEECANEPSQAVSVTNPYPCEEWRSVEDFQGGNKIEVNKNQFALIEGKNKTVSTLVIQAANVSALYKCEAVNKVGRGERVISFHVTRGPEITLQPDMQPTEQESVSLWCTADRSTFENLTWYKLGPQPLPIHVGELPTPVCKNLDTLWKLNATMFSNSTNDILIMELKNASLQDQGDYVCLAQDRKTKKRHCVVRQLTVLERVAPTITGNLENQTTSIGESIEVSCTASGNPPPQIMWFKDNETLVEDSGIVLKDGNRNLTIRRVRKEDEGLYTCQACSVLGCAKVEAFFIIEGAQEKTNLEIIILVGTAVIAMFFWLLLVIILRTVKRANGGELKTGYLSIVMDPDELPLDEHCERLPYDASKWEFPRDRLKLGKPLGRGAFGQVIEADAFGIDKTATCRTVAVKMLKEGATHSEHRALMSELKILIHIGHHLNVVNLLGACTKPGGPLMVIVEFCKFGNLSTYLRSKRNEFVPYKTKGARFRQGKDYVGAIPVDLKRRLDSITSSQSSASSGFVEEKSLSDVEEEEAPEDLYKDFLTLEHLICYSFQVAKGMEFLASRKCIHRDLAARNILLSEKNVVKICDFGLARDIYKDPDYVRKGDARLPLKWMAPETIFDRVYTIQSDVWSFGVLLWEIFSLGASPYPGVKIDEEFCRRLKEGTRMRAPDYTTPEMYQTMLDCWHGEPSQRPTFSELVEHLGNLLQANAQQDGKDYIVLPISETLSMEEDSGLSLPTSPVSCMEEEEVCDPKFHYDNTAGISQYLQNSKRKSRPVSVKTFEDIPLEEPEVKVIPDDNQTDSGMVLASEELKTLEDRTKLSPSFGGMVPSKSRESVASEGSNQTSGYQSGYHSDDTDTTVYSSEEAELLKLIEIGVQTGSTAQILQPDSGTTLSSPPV
T10 sequence (P10721 26-976 D816H): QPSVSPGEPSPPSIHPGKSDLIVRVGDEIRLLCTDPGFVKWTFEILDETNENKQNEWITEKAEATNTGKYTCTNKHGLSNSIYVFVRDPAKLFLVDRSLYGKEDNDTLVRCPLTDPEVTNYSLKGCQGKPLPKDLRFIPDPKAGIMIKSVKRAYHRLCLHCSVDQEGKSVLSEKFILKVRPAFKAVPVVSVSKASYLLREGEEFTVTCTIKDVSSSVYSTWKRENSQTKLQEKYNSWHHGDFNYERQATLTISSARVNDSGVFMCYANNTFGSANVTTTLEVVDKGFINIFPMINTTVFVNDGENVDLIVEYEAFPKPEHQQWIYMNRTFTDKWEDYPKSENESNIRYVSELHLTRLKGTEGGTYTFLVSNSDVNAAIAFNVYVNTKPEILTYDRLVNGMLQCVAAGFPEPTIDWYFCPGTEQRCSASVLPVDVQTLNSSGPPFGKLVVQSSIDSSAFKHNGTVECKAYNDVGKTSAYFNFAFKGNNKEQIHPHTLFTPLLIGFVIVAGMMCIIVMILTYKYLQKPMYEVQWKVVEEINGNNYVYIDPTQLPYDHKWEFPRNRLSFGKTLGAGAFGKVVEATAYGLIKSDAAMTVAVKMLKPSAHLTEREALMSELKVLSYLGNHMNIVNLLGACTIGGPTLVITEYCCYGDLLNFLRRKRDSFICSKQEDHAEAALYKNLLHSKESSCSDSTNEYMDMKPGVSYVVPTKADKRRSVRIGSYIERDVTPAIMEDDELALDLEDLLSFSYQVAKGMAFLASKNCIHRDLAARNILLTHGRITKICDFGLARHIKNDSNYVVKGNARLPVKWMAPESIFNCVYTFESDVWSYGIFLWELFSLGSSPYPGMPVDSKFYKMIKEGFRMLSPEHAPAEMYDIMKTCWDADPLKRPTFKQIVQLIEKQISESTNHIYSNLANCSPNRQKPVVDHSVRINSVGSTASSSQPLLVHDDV
T2 sequence (P17948 27-1338): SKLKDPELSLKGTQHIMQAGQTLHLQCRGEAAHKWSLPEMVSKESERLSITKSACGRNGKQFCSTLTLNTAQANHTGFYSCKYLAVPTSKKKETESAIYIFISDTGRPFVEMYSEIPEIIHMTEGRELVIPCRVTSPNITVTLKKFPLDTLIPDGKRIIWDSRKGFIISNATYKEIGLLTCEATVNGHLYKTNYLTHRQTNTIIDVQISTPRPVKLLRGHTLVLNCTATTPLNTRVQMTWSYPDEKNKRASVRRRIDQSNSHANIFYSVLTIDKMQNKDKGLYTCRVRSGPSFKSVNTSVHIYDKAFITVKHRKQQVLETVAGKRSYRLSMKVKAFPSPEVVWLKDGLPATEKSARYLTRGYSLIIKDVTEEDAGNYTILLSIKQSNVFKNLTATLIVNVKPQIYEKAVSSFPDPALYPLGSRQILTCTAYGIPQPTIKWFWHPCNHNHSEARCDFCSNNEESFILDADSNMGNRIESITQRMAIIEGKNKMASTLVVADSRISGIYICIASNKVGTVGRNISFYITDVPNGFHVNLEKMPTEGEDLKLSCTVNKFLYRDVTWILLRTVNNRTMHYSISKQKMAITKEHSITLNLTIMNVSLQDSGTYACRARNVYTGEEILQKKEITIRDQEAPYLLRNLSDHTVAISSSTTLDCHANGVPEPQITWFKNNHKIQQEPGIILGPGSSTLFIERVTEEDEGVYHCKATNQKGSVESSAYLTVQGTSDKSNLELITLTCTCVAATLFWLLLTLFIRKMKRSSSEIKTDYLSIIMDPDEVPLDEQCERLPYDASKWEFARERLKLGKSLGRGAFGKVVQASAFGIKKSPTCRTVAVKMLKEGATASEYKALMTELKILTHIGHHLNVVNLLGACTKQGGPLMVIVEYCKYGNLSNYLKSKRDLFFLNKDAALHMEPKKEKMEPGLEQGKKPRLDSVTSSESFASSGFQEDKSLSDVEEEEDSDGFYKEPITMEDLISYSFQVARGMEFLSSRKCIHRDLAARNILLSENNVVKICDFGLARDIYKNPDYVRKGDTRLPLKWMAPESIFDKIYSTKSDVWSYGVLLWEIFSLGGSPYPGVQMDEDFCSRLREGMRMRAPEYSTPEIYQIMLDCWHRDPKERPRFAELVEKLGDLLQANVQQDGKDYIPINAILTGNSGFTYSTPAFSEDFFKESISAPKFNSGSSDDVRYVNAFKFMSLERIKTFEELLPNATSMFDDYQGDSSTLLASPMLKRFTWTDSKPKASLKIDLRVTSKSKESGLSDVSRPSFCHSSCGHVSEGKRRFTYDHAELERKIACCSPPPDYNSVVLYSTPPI

Molecule `CONC(=O)c1ccccc1Nc1cc(Nc2cc(C)nn2C(C)C)ncc1Cl` [GSK2256098] has a remaining activity at 1 µM (PKCι(h)) of 106%, a remaining activity at 1 µM (Flt1(h)) of 94% and a remaining activity at 1 µM (CK1γ2(h)) of 97%. For the same molecule, the remaining activity at 1 µM (cSRC(h)) was 88%, the remaining activity at 1 µM (HIPK3(h)) was 106% and the remaining activity at 1 µM (Flt4(h)) was 67%. It also gave a remaining activity at 1 µM (Fes(h)) of 49%, a remaining activity at 1 µM (Abl(T315I)(h)) of 92% and a remaining activity at 1 µM (KDR(h)) of 88%. For the same molecule, the remaining activity at 1 µM (cKit(D816H)(h)) was 98% and the remaining activity at 1 µM (IKKα(h)) was 93%.

In the case of `CNC(=O)c1cccc(C)c1Nc1nc(Nc2ccc(N3CCN(C4C5CC6CC4CC(O)(C6)C5)CC3)cc2OC)ncc1C(F)(F)F` (stereo not drawn) [SJP1602, 2-((2-((4-(4-((2s,5r)-5-hydroxyadamantan-2-yl)piperazin-1-yl)-2-methoxyphenyl)amino)-5-(trifluoromethyl)pyrimidin-4-yl)amino)-N,3-dimethylbenzamide], the remaining activity at 1 µM (PKCι(h)) is reported as 93%, the remaining activity at 1 µM (Flt1(h)) is reported as 106% and the remaining activity at 1 µM (CK1γ2(h)) is reported as 101%. It also gave a remaining activity at 1 µM (cSRC(h)) of 99%, a remaining activity at 1 µM (HIPK3(h)) of 100% and a remaining activity at 1 µM (Flt4(h)) of 104%. It also gave a remaining activity at 1 µM (Fes(h)) of 54%, a remaining activity at 1 µM (Abl(T315I)(h)) of 106% and a remaining activity at 1 µM (KDR(h)) of 101%. It also gave a remaining activity at 1 µM (cKit(D816H)(h)) of 124% and a remaining activity at 1 µM (IKKα(h)) of 130%.

Work on `CNC(=O)c1ccc(Nc2ncc(C(F)(F)F)c(NCc3nccnc3N(C)S(C)(=O)=O)n2)cc1` [VS-6063, Defactinib] yielded a remaining activity at 1 µM (PKCι(h)) of 100%, a remaining activity at 1 µM (Flt1(h)) of 21% and a remaining activity at 1 µM (CK1γ2(h)) of 64%. For the same molecule, the remaining activity at 1 µM (cSRC(h)) was 72%, the remaining activity at 1 µM (HIPK3(h)) was 54% and the remaining activity at 1 µM (Flt4(h)) was -3%. For the same molecule, the remaining activity at 1 µM (Fes(h)) was 7%, the remaining activity at 1 µM (Abl(T315I)(h)) was 44% and the remaining activity at 1 µM (KDR(h)) was 28%. For the same molecule, the remaining activity at 1 µM (cKit(D816H)(h)) was 94% and the remaining activity at 1 µM (IKKα(h)) was 125%.
